Data reported in US20140273139A1, “Direct Fermentation of Biomass to Fuel Precursors” (Innovative Metabolism Inc., priority 2013, published 2014).

Experiments:
P. chrysosporium [1] = assay: Solid-state fermentation of corn stover by P. chrysosporium in the presence of carbon monoxide; type: cell-based, Phanerochaete chrysosporium; details: 10% air and 90% CO, through Day 44
Procedure: In this example solvent fermentation was initiated by introduction of a mix of 10% air and 90% CO. Corn stover was prepared as described in Example 7. P. chrysosporium conidiospores and mycelia harvested from agar medium were added to the stover and the mixture was transferred to the rotating drum of the solid-state bioreactor under sterile conditions. The bioreactor was sealed and placed in a 44° C. incubator. The volume of gas flow remained constant at 10 ml/min for the entire experiment.
The fermentor was run aerobically for 45 hours to establish growth. Between hour 45 and Day 44 a gas mix comprised of 10% air and 90% CO was flowed through the system. Fungal metabolic activity was restored by flowing air through the system from Day 51-55. From Day 57-65 the fermentation was run anaerobically in the absence of CO. Fungal metabolic activity was again restored by aerobic growth from Day 65-68, and then anaerobic fermentation was continued from Day 68-82.

[2] = tested on: P. chrysosporium and K. marxianus; assay: Solid-state fermentation of corn stover by consortium in the presence of carbon monoxide; type: cell-based, Phanerochaete chrysosporium / Kluyveromyces marxianus; details: 90% CO and 10% air, first 27 days
Procedure: In this example, solvent-producing fermentation was initiated by introduction of a mix of air and CO, a competitive inhibitor of cytochrome c oxidase. Corn stover was prepared as described in Example 7. A mixture of P. chrysosporium conidiospores and mycelia harvested from agar medium, and 1 ml of K. marxianus from an overnight culture in YPD broth were added to the stover. The mixture was transferred to the rotating drum of the solid-state bioreactor under sterile conditions. The bioreactor was sealed and placed in a 44° C. incubator.
Growth was established under aerobic conditions (10 ml/min of air was flowed through the bioreactor for 17 hours). Fermentation was initiated by flowing a mixture comprised of 90% CO and 10% air through the bioreactor. During the first 27 days productivity peaked at 2.3×10^−5 g solvent/hr/g biomass remaining and yield for the period was 5.7% of biomass consumed (FIG. 8).

P. chrysosporium [3] = assay: Submerged liquid fermentation in the presence of air and gaseous mitochondrial inhibitor (GC-MS of headspace); type: cell-based, Phanerochaete chrysosporium; details: aerobic culture, NO target concentration 1 μM, 2% glucose, 37° C.
Procedure: In this experiment P. chrysosporium was grown from conidiospores in submerged liquid culture. The growth medium was Highley's Basal salts [Wymelenberg, A. V., et al., The Phanerochaete chrysosporium secretome: database predictions and initial mass spectrometry peptide identifications in cellulose-grown medium. J Biotechnol, 2005. 118(1): p. 17-34.] supplemented with 0.1% yeast extract (YE) and 2% glucose. Conidiospores were inoculated in liquid medium in 3 neck flasks. The temperature was maintained at 37° C. The cultures were mixed using magnetic stir bars and gasses (air, nitrogen, and air supplemented with nitric oxide (NO)) were bubbled through the medium using stainless steel needles. Fungi were grown: 1) aerobically; 2) anaerobically; and 3) aerobically with NO delivered to a target concentration of 1 μM. Cultures were sampled daily and analyzed using GC-MS (FIG. 3). P. chrysosporium grew rapidly forming large, encapsulated masses of material.
The identity of the ethanol peak was confirmed by MS analysis. Samples were transferred to glass septum vials and heated to 60° C. A gas-tight syringe was used to sample 50 μl from the headspace. Samples were analyzed on a 6890N GC system with a 5975 Mass Selective Detector (Agilent) using a PH Innowax column.

P. chrysosporium [4] = assay: Submerged liquid fermentation under reduced oxygen with the mitochondrial inhibitor rotenone (GC-MS, standard curves); type: cell-based, Phanerochaete chrysosporium
Procedure: In this experiment P. chrysosporium was grown from conidiospores in submerged liquid culture. The growth medium was Highley's Basal salts [Wymelenberg, A. V., et al., The Phanerochaete chrysosporium secretome: database predictions and initial mass spectrometry peptide identifications in cellulose-grown medium. J Biotechnol, 2005. 118(1): p. 17-34.] supplemented with 0.1% yeast extract (YE) and 2% glucose. Conidiospores were inoculated in 50 ml of liquid medium in a 250 ml Erlenmyer flask which was then capped with a 3-piece fermentation lock to prevent evaporation of volatile products and to allow the culture to incubate in a reduced oxygen environment. The culture was incubated statically.
A large mass of fungus was produced and remained suspended near the top of the medium. Samples were collected, transferred to glass septum vials and heated to 60° C. Samples were analyzed on a 6890N GC system with a 5975 Mass Selective Detector (Agilent) using a PH Innowax column. […] Standard curves were performed for each solvent. The concentrations in the fermentation broth were determined to be 0.74 mM for acetone, 1.8 mM for isopropanol, and 1.9 mM for ethanol. This experiment provided the first indication that P. chrysosporium was capable of fermenting sugars to acetone and isopropanol.

[5] = rotenone-treated, reduced oxygen, static culture

Molecule: [C-]#[O+] [CO, carbon monoxide]
- acetone share of solvent mix (P. chrysosporium [1]): 28%
- ethanol share of solvent mix (P. chrysosporium [1]): 72%
- isopropanol share of solvent mix (P. chrysosporium [1]): only trace amounts
- solvents produced [2]: Ethanol was the only solvent produced in significant quantities
- peak productivity ([2]; 44° C.): 2.3×10^−5 g solvent/hr/g biomass remaining
- solvent yield ([2]; 44° C.): 5.7 % of biomass consumed

Molecule: nitric oxide
- ethanol production by the culture (P. chrysosporium [3]): appeared to enable ethanol production in the presence of dissolved oxygen

Molecule: C=C(C)[C@H]1Cc2c(ccc3c2O[C@@H]2COc4cc(OC)c(OC)cc4[C@@H]2C3=O)O1 [Rotenone, rotenone]
- solvents produced in the presence of the inhibitor (P. chrysosporium [4]; liquid culture, oxygen-limited conditions, glucose): production of acetone, isopropanol and ethanol
- acetone concentration in the fermentation broth (P. chrysosporium [4]; [5]): 0.74 mM
- ethanol concentration in the fermentation broth (P. chrysosporium [4]; [5]): 1.9 mM
- isopropanol concentration in the fermentation broth (P. chrysosporium [4]; [5]): 1.8 mM
